This note sets out measurements from the OligoGym collection.

Where “and” joins values, the source holds several entries; their conditions need not be identical. Equal entries are not always repeated. After the bases stand the sugars from the 5' end (letter, count) and the backbone: PS all phosphorothioate, else s phosphorothioate and o phosphodiester by linkage. Methylation of C is not given here. e = 2'-O-(2-methoxyethyl) (MOE); k = constrained ethyl (cEt); d = 2'-deoxy (DNA)

For the series, the target named is APOL1. Conditions: ASO.

As for AATTTTATGGAACCTC (sugars k3 d10 k3, PS), the target mRNA inhibition is, setting by setting: (A431, 0.0625 µM) 37%; (A431, 0.25 µM) 74%; (A431, 1 µM) 90%.

In turn, “ACACATCATTGGGTTA (sugars kdddddkekekddddd, PS)” returned a target mRNA inhibition (A431, 2 µM) of 47%.

In turn, “ACACATCATTGGGTTA (sugars kekddddeekkddddd, PS)” registered a target mRNA inhibition (A431, 2 µM) of 87%.

On to “ACACATCATTGGGTTA (sugars kkddddekekeddddd, PS)”, for which the target mRNA inhibition (A431, 2 µM) was found to be 64%.

With “ACACATCATTGGGTTA (sugars kkddddkdkdkddddd, PS)”, the target mRNA inhibition (A431, 2 µM) is 57%.

In the case of ACCCTCTTTATCCCCC (sugars k4 d9 k3, PS), the target mRNA inhibition was 53% and 39% (A431, 0.0625 µM); 82% and 65% (A431, 0.25 µM); 92% and 81% (A431, 1 µM).

As for ACCCTTTTGGCACCTT (sugars k4 d9 k3, PS), the target mRNA inhibition is 49% (A431, 0.0625 µM); 79% and 76% (A431, 0.25 µM); 92% and 89% (A431, 1 µM).

In the case of “ACGCAATGCTGACTTG (sugars kdddddkekekddddd, PS)”, where the note is “A431, 2 µM”, the target mRNA inhibition stood at 71%.

With “ACGCAATGCTGACTTG (sugars kkdddddkekeddddd, PS)”, for the setting “A431, 2 µM”, the target mRNA inhibition was 89%.

With “ACGCAATGCTGACTTG (sugars kkddddkdkdkddddd, PS)”, for the setting “A431, 2 µM”, the target mRNA inhibition was 85%.

Turning to “ACGCAATGCTGACTTG (sugars kkkddddkekeddddd, PS)”, the target mRNA inhibition (A431, 2 µM) is 87%.

On to “ACGCAATGCTGACTTG (sugars kkkddddkekekdddd, PS)”, for which, under “A431, 2 µM”, the target mRNA inhibition was 71%.

Take ACTTCTGTTAGATACA (sugars k4 d9 k3, PS): the target mRNA inhibition turned out to be 38% (A431, 0.0625 µM); 73% (A431, 0.25 µM); 90% (A431, 1 µM).

Consider “ACTTTACATGCACGAT (sugars kkdddddddddekeke, PS)”, for which the target mRNA inhibition reads like this: (A431, 0.0156 µM) 8%; (A431, 0.0625 µM) 25%; (A431, 0.25 µM) 58%; (A431, 1 µM) 84%.

Under “A431, 2 µM”, “ACTTTATACCAGTGTC (sugars k3 d4 k3 e1 d5, PS)” returned a target mRNA inhibition of 58%.

On to ACTTTTTCACCATAGC (sugars k4 d9 k3, PS), for which the target mRNA inhibition is, setting by setting: (A431, 0.0625 µM) 53%; (A431, 0.25 µM) 82%; (A431, 1 µM) 93%.

In the case of AGATGGGTACTTCTGT (sugars k4 d9 k3, PS), the target mRNA inhibition runs as follows: (A431, 0.0625 µM) 85%; (A431, 0.25 µM) 88%; (A431, 1 µM) 93%.

In the case of AGATGTGTTTAGGCAT (sugars k4 d9 k3, PS), the target mRNA inhibition is, setting by setting: (A431, 0.0625 µM) 54%; (A431, 0.25 µM) 85%; (A431, 1 µM) 95%.

For the setting “A431, 2 µM”, “AGCTTTAAACTCAGGT (sugars k2 d4 e3 k2 d5, PS)” yielded a target mRNA inhibition of 93%.

Regarding “AGCTTTAAACTCAGGT (sugars k3 d4 k3 e1 d5, PS)”, the target mRNA inhibition (A431, 2 µM) was 82%.

Take “AGCTTTAAACTCAGGT (sugars kdddddkekekddddd, PS)”: the target mRNA inhibition is, setting by setting: (A431, 0.0156 µM) 14%; (A431, 0.0625 µM) 46%; (A431, 0.25 µM) 80%; (A431, 1 µM) 92%; (A431, 2 µM) 95%.

In the case of “AGCTTTAAACTCAGGT (sugars kkdddddkekeddddd, PS)”, the target mRNA inhibition (A431, 0.0156 µM) came to 31%; the target mRNA inhibition (A431, 0.0625 µM) worked out at 53%; the target mRNA inhibition (A431, 0.25 µM) amounted to 79%; the target mRNA inhibition (A431, 1 µM) worked out at 92%; the target mRNA inhibition (A431, 2 µM) was 94%.

For the setting “A431, 2 µM”, “AGCTTTAAACTCAGGT (sugars kkddddekekeddddd, PS)” had a target mRNA inhibition of 92%.

“AGCTTTAAACTCAGGT (sugars kkddddkdkdkddddd, PS)” gave a target mRNA inhibition (A431, 2 µM) of 86%.

In the case of “AGCTTTAAACTCAGGT (sugars kkddddkekekddddd, PS)”, the target mRNA inhibition (A431, 2 µM) was found to be 87%.

In the case of “AGCTTTAAACTCAGGT (sugars kkkddddkdkdkdddd, PS)”, the target mRNA inhibition (A431, 2 µM) was 74%.

As for AGGGAAATGAACGCAA (sugars k4 d9 k3, PS), the target mRNA inhibition came out at 38% (A431, 0.0625 µM); 65% (A431, 0.25 µM); 85% (A431, 1 µM).

For the setting “A431, 2 µM”, “AGTATTGCCAGCTAAG (sugars k2 d4 e3 k2 d5, PS)” displayed a target mRNA inhibition of 86%.

On to “AGTATTGCCAGCTAAG (sugars kkddddkdkdkddddd, PS)”, for which the target mRNA inhibition (A431, 2 µM) came out at 69%.

Turning to “AGTATTGTTTTTGTGG (sugars kkddddekekeddddd, PS)”, the target mRNA inhibition (A431, 2 µM) stood at 89%.

Regarding “AGTATTGTTTTTGTGG (sugars kkddddkdkdkddddd, PS)”, the target mRNA inhibition (A431, 2 µM) is 72%.

Turning to “AGTTTTGTAAGTGCAA (sugars k3 d4 k3 e1 d5, PS)”, the target mRNA inhibition was 15% (A431, 0.0156 µM); 60% (A431, 0.0625 µM); 87% (A431, 0.25 µM); 94% (A431, 1 µM); 96% (A431, 2 µM).

For “AGTTTTGTAAGTGCAA (sugars kkddddekekeddddd, PS)”, the target mRNA inhibition reads like this: (A431, 0.0156 µM) 25%; (A431, 0.0625 µM) 53%; (A431, 0.25 µM) 79%; (A431, 1 µM) 91%; (A431, 2 µM) 91%.

As to “AGTTTTGTAAGTGCAA (sugars kkddddkdkdkddddd, PS)”, the target mRNA inhibition by setting is: (A431, 0.0156 µM) 16%; (A431, 0.0625 µM) 34%; (A431, 0.25 µM) 72%; (A431, 1 µM) 85%; (A431, 2 µM) 91%.

Sequence “ATCAGATGGGTACTTC (sugars k2 d4 e3 k2 d5, PS)” showed a target mRNA inhibition (A431, 2 µM) of 67%.

Under “A431, 2 µM”, “ATCAGATGGGTACTTC (sugars kdddddkekekddddd, PS)” gave a target mRNA inhibition of 73%.

For the sequence “ATCAGATGGGTACTTC (sugars kkdddddkekeddddd, PS)”, the target mRNA inhibition (A431, 2 µM) came out at 83%.

The sequence “ATCAGATGGGTACTTC (sugars kkddddkdkdkddddd, PS)” came in with a target mRNA inhibition (A431, 2 µM) of 78%.

As to ATCCTGGGCGGCGACA (sugars k4 d9 k3, PS), the target mRNA inhibition by setting is: (A431, 0.0625 µM) 35% and 28%; (A431, 0.25 µM) 62% and 50%; (A431, 1 µM) 82% and 72%.

In turn, “ATTCAGAATTTCCACT (sugars k2 d4 e4 k2 d4, PS)” registered a target mRNA inhibition (A431, 2 µM) of 64%.

Regarding “ATTCAGAATTTCCACT (sugars k3 d4 k3 e1 d5, PS)”, the target mRNA inhibition (A431, 2 µM) amounted to 89%.

Turning to “ATTCAGAATTTCCACT (sugars kkddddkdkdkddddd, PS)”, the target mRNA inhibition (A431, 2 µM) worked out at 79%.

For “ATTCTATTAGAGGGCT (sugars kkddddekekeddddd, PS)”, the target mRNA inhibition (A431, 2 µM) came to 25%.

The sequence “ATTCTATTAGAGGGCT (sugars kkddddkekekddddd, PS)” registered a target mRNA inhibition (A431, 2 µM) of 46%.

With ATTCTATTGGGCCTCA (sugars k4 d9 k3, PS), the target mRNA inhibition runs as follows: (A431, 0.0625 µM) 28%; (A431, 0.25 µM) 62%; (A431, 1 µM) 86%.

Turning to “ATTCTCATGGTACAGG (sugars k3 d4 k3 e1 d5, PS)”, the target mRNA inhibition by setting is: (A431, 0.0156 µM) 17%; (A431, 0.0625 µM) 48%; (A431, 0.25 µM) 72%; (A431, 1 µM) 88%; (A431, 2 µM) 93%.

The sequence “ATTCTCATGGTACAGG (sugars k3 d5 k3 d5, PS)” displayed a target mRNA inhibition (A431, 2 µM) of 97%.
